One assay deals with HPV 16. The assay is described as follows: HPV 16 episome DNA levels in W12E cells by Q-PCR (Taqman). In kind it is cell-based, Human papilloma virus.
Conditions: not given
As for the experimental part: Cells maintaining HPV 16 DNA were cultured for 72 hours in the presence of cidofovir, interferon γ or polyamide. Viral DNA was then quantified using real-time PCR and compared to vehicle (DMSO)-treated control cultures.
Compounds were initially tested for effects on HPV 16 episome DNA levels in W12E cells by Q-PCR (Taqman™) over 3 concentration ranges (0.1, 1 and 10 μM). W12E cells are a cervical keratinocyte cell line originally identified by M. Stanley (Cambridge University), and later optimized and provided by P. Lambert (U. of Wisconsin). […] In all cases (initial tests and follow-up IC50 tests), dose testing was performed in triplicate. […] Furthermore, all experiments were conducted in triplicate, multiple times. The data were then combined, pseudo or effective IC50 values calculated, and variance determined to reveal the fit of the data to the model and its reliability.
Keratinocytes that maintain HPV 16 episomes were treated with increasing concentrations of polyamides.
For orientation: Real-time PCR tracks product formation cycle by cycle.
Turning to `CN(CCCN)CCCNC(=O)CCNC(=O)c1cc(NC(=O)c2cc(NC(=O)c3cc(NC(=O)c4cc(NC(=O)c5cc(NC(=O)[C@H](N)CCNC(=O)c6cc(NC(=O)c7cc(NC(=O)c8cc(NC(=O)c9cc(NC(=O)c%10nccn%10C)cn9C)cn8C)cn7C)cn6C)cn5C)cn4C)cn3C)cn2C)cn1C` [Polyamide 1006, ImPPPPγNH2PPPPPβTa], the “antiviral activity in this study” value is “inactive”.

Still in this assay, the particulars now being: effective (pseudo) IC50; 50% reduction in HPV DNA relative to vehicle (0.1% DMSO); read-out: HPV-16 IC50.
As usually defined, the IC50 is the concentration at which inhibition is half-maximal. In the case of `CN(C)CCCNC(=O)CCNC(=O)c1cc(NC(=O)c2cc(NC(=O)c3cc(NC(=O)CCNC(=O)c4cc(NC(=O)c5cc(NC(=O)c6cc(NC(=O)CCCNC(=O)c7cc(NC(=O)c8cc(NC(=O)CCNC(=O)c9cc(NC(=O)c%10cc(NC(=O)c%11cc(NC(=O)c%12nccn%12C)cn%11C)cn%10C)cn9C)cn8C)cn7C)cn6C)cn5C)cn4C)cn3C)cn2C)cn1C` [Polyamide 1002, ImPPPβPPγPPPβPPPβDp], the IC50 was more than 10 µM.
For the compound `CN(CCCN)CCCNC(=O)CCNC(=O)c1cc(NC(=O)c2cc(NC(=O)c3cc(NC(=O)c4cc(NC(=O)c5cc(NC(=O)CCCNC(=O)c6cc(NC(=O)c7cc(NC(=O)c8cc(NC(=O)c9cc(NC(=O)c%10nccn%10C)cn9C)cn8C)cn7C)cn6C)cn5C)cn4C)cn3C)cn2C)cn1C` [Polyamide 1005, ImPPPPγPPPPPβTa], the 50% inhibitory concentration (IC50) is more than 10 µM.
The same measure, in the same setting: as for `CN(CCCN)CCCNC(=O)CCNC(=O)c1cc(NC(=O)c2cc(NC(=O)c3cc(NC(=O)c4cc(NC(=O)c5cc(NC(=O)[C@H](N)CCNC(=O)c6cc(NC(=O)c7cc(NC(=O)c8cc(NC(=O)c9cc(NC(=O)c%10nccn%10C)cn9C)cn8C)cn7C)cn6C)cn5C)cn4C)cn3C)cn2C)cn1C` [Polyamide 1006, ImPPPPγNH2PPPPPβTa], the figure is more than 10 µM.
On the same count and under the same terms, as for `CN(C)CCCNC(=O)CCNC(=O)c1cc(NC(=O)c2cc(NC(=O)c3cc(NC(=O)c4cc(NC(=O)c5cc(NC(=O)CCCNC(=O)c6cc(NC(=O)c7cc(NC(=O)c8cc(NC(=O)c9cc(NC(=O)c%10nccn%10C)cn9C)cn8C)cn7C)cn6C)cn5C)cn4C)cn3C)cn2C)cn1C` [Polyamide 1010, ImPPPPγPPPPPβDp], the figure is more than 10 µM; as for `CN(C)CCCNC(=O)CCNC(=O)c1cc(NC(=O)c2cc(NC(=O)c3cc(NC(=O)c4cc(NC(=O)CCCNC(=O)c5nc(NC(=O)c6cc(NC(=O)c7cc(NC(=O)c8nccn8C)cn7C)cn6C)cn5C)cn4C)cn3C)cn2C)cn1C` [Polyamide 1011, ImPPIγPPPPβDp], more than 10 µM; as for `CN(C)CCCNC(=O)CCNC(=O)c1cc(NC(=O)c2cc(NC(=O)c3cc(NC(=O)c4nc(NC(=O)CCCNC(=O)c5cc(NC(=O)c6nc(NC(=O)c7nc(NC(=O)c8nccn8C)cn7C)cn6C)cn5C)cn4C)cn3C)cn2C)cn1C` [Polyamide 1012, ImIIPγIPPPβDp], more than 10 µM.
For the compound `CN(C)CCCNC(=O)CCNC(=O)c1cc(NC(=O)c2nc(NC(=O)c3cc(NC(=O)c4cc(NC(=O)CCCNC(=O)c5cc(NC(=O)c6cc(NC(=O)c7cc(NC(=O)c8nccn8C)cn7C)cn6C)cn5C)cn4C)cn3C)cn2C)cn1C` [Polyamide 1013, ImPPPγPPIPβDp], the IC50 is more than 10 µM.
On the same count and under the same terms, as for `CN(C)CCCNC(=O)CCNC(=O)c1cc(NC(=O)c2cc(NC(=O)c3cc(NC(=O)c4nc(NC(=O)CCCNC(=O)c5cc(NC(=O)c6nc(NC(=O)CCNC(=O)c7nccn7C)cn6C)cn5C)cn4C)cn3C)cn2C)cn1C` [Polyamide 1014, ImβIPγIPPPβDp], the figure is more than 10 µM; as for `CN(C)CCCNC(=O)CCNC(=O)c1cc(NC(=O)c2cc(NC(=O)c3cc(NC(=O)c4cc(NC(=O)CCCNC(=O)c5cc(NC(=O)c6nc(NC(=O)CCNC(=O)c7nccn7C)cn6C)cn5C)cn4C)cn3C)cn2C)cn1C` [Polyamide 1015, ImβIPγPPPPβDp], more than 10 µM; as for `CN(C)CCCNC(=O)CCNC(=O)c1cc(NC(=O)c2cc(NC(=O)c3cc(NC(=O)c4cc(NC(=O)c5cc(NC(=O)CCCNC(=O)c6cc(NC(=O)c7nc(NC(=O)c8nc(NC(=O)CCNC(=O)c9nccn9C)cn8C)cn7C)cn6C)cn5C)cn4C)cn3C)cn2C)cn1C` [Polyamide 1016, ImβIIPγPPPPPβDp], more than 10 µM.
For the compound `CN(C)CCCNC(=O)CCNC(=O)c1cc(NC(=O)c2nc(NC(=O)c3nc(NC(=O)c4cc(NC(=O)CCCNC(=O)c5nc(NC(=O)c6cc(NC(=O)c7cc(NC(=O)c8nccn8C)cn7C)cn6C)cn5C)cn4C)cn3C)cn2C)cn1C` [Polyamide 1017, ImPPIγPIIPβDp], the IC50 is more than 10 µM.
The same measure, in the same setting: as for `CN(C)CCCNC(=O)CCNC(=O)c1cc(NC(=O)c2nc(NC(=O)c3cc(NC(=O)c4cc(NC(=O)c5nc(NC(=O)CCCNC(=O)c6cc(NC(=O)c7cc(NC(=O)c8nc(NC(=O)CCNC(=O)c9nccn9C)cn8C)cn7C)cn6C)cn5C)cn4C)cn3C)cn2C)cn1C` [Polyamide 1018, ImβIPPγIPPIPβDp], the figure is more than 10 µM; as for `CN(C)CCCNC(=O)CCNC(=O)c1cc(NC(=O)c2cc(NC(=O)c3nc(NC(=O)c4cc(NC(=O)c5nc(NC(=O)CCCNC(=O)c6cc(NC(=O)c7nc(NC(=O)c8cc(NC(=O)c9cc(NC(=O)c%10nccn%10C)cn9C)cn8C)cn7C)cn6C)cn5C)cn4C)cn3C)cn2C)cn1C` [Polyamide 1019, ImPPIPγIPIPPβDp], more than 10 µM; as for `CN(C)CCCNC(=O)CCNC(=O)c1cc(NC(=O)c2cc(NC(=O)c3nc(NC(=O)c4cc(NC(=O)CCCNC(=O)c5nc(NC(=O)c6cc(NC(=O)c7nc(NC(=O)c8nccn8C)cn7C)cn6C)cn5C)cn4C)cn3C)cn2C)cn1C` [Polyamide 1021, ImIPIγPIPPβDp], more than 10 µM.
Turning to `CN(C)CCCNC(=O)CCNC(=O)CCNC(=O)c1cc(NC(=O)c2cc(NC(=O)c3cc(NC(=O)CCNC(=O)c4cc(NC(=O)c5cc(NC(=O)c6cc(NC(=O)CCCNC(=O)c7cc(NC(=O)c8cc(NC(=O)c9cc(NC(=O)CCNC(=O)c%10cc(NC(=O)c%11cc(NC(=O)c%12cc(NC(=O)c%13nccn%13C)cn%12C)cn%11C)cn%10C)cn9C)cn8C)cn7C)cn6C)cn5C)cn4C)cn3C)cn2C)cn1C` [Polyamide 1025, ImPPPβPPPγPPPβPPPββDp], the IC50 was more than 10 µM.
In the case of `CN(C)CCCNC(=O)CCNC(=O)c1cc(NC(=O)c2cc(NC(=O)c3cc(NC(=O)c4cc(NC=O)cn4C)cn3C)cn2C)cn1C` [Polyamide 1038, OHC-PPPPβDp], the IC50 was more than 10 µM.
In the case of `CN(C)CCCNC(=O)CCNC(=O)c1cc(NC(=O)c2cc(NC(=O)c3cc(NC(=O)c4cc(NC(=O)c5cc(NC(=O)c6cc(NC=O)cn6C)cn5C)cn4C)cn3C)cn2C)cn1C` [Polyamide 1039, OHC-PPPPPPβDp], the IC50 was more than 10 µM.
Still for that read-out and setting: as for `CN(C)CCCNC(=O)CCNC(=O)c1cc(NC(=O)c2cc(NC(=O)c3cc(NC(=O)CCNC(=O)c4cc(NC(=O)c5cc(NC(=O)c6cc(NC(=O)CCNC(=O)c7cc(NC(=O)CCNC(=O)CCCNC(=O)c8nc(NC(=O)c9cc(NC(=O)c%10cc(NC(=O)CCNC(=O)c%11cc(NC(=O)c%12nc(NC(=O)c%13cc(NC(=O)CCNC(=O)c%14cc(NC(=O)c%15cc(NC(=O)c%16nccn%16C)cn%15C)cn%14C)cn%13C)cn%12C)cn%11C)cn%10C)cn9C)cn8C)cn7C)cn6C)cn5C)cn4C)cn3C)cn2C)cn1C` [Polyamide 1041, ImPPβPIPβPPIγβPβPPPβPPPβDp], the figure is more than 10 µM; as for `CN(C)CCCNC(=O)c1cc(NC(=O)c2cc(NC(=O)CCNC(=O)c3cc(NC(=O)c4cc(NC(=O)c5cc(NC(=O)CCNC(=O)c6cc(NC(=O)c7cc(NC(=O)CCCNC(=O)CCNC(=O)c8cc(NC(=O)c9cc(NC(=O)CCNC(=O)c%10cc(NC(=O)c%11cc(NC(=O)c%12cc(NC(=O)c%13nccn%13C)cn%12C)cn%11C)cn%10C)cn9C)cn8C)cn7C)cn6C)cn5C)cn4C)cn3C)cn2C)cn1C` [Polyamide 1056, ImPPPβPPβγPPβPPPβPPDp], more than 10 µM.
On to ImPPPPγPPPPPβTa-BOFLX [Polyamide 1008], for which the IC50 was more than 10 µM.
ImPPPPγPPPPPβTa-FITC [Polyamide 1007]: the IC50 is more than 10 µM.

The record behind these values is patent US9290551B2, “Compounds for treating papilloma virus infection” (NanoVir, LLC, priority 2012, dated 2016).
